ChEMBL document CHEMBL1129270, “Aza-peptide analogs as potent human immunodeficiency virus type-1 protease inhibitors with oral bioavailability” (J Med Chem, 1996)

How the values were obtained:
[1] = target: Human immunodeficiency virus type 1 protease (Human immunodeficiency virus 1) (UniProt Q72874); test: In vivo for antiviral activity (ED90) against HIV-1 protease.; format: organism-based
[2] = target: Human immunodeficiency virus type 1 protease (Human immunodeficiency virus 1) (UniProt Q72874); test: In vivo antiviral activity (IC50) against HIV-1 protease.; format: organism-based
[3] = Plasma Concentration after 120 min of oral administration to mice; format: ADME, organism-based; conditions: mouse
[4] = Plasma Concentration after 90 min of oral administration to mice; format: ADME, organism-based; conditions: mouse
Mus musculus (mouse) = test: Plasma Concentration after 60 min of oral administration to mice
[5] = Plasma Concentration after 30 min of oral administration to mice; format: ADME, organism-based; conditions: mouse
[6] = Compound was tested in vivo for antiviral activity (C120/ED50) against HIV Protease.; format: functional

| ED90 [1] | ED50 [2] | concentration at 2 h [3] | concentration at 1.5 h [4] | concentration at 1 h (Mus musculus (mouse)) | concentration at 0.5 h [5] | Compound | C120/ED50 [6] |
| --- | --- | --- | --- | --- | --- | --- | --- |
| 0.1 µM | 0.018 µM | – | – | – | – | COC(=O)N[C@H](C(=O)N[C@@H](Cc1ccccc1)C(O)CN(CC1CCCCC1)NC(=O)[C@@H](NC(=O)OC)C(C)C)C(C)C (some centres undefined) | – |
| 1 µM | 0.15 µM | – | – | – | – | COC(=O)N[C@H](C(=O)N[C@@H](Cc1ccccc1)C(O)CN(Cc1ccc(O)cc1)NC(=O)[C@@H](NC(=O)OC)C(C)C)C(C)C (some centres undefined) | – |
| 0.1 µM | 0.017 µM | – | – | – | – | COC(=O)N[C@H](C(=O)N[C@@H](Cc1ccccc1)C(O)CN(Cc1ccc(C(F)(F)F)cc1)NC(=O)[C@@H](NC(=O)OC)C(C)C)C(C)C (some centres undefined) | – |
| 1 µM | 0.023 µM | – | – | – | – | COC(=O)N[C@H](C(=O)N[C@@H](Cc1ccccc1)C(O)CN(CC(C)C)NC(=O)[C@@H](NC(=O)OC)C(C)C)C(C)C (some centres undefined) | – |
| 0.03 µM | 0.015 µM | – | – | – | – | COc1ccc(CN(C[C@H](O)[C@H](Cc2ccccc2)NC(=O)[C@H](CC(N)=O)NC(=O)c2ccc3ccccc3n2)NC(=O)C(NC(=O)OCc2ccccc2)C(C)C)cc1 (some centres undefined) | – |
| 0.01 µM | 0.0045 µM | – | – | – | – | CC(C)(C)NC(=O)[C@@H]1C[C@@H]2CCCC[C@@H]2CN1C[C@@H](O)[C@H](Cc1ccccc1)NC(=O)[C@H](CC(N)=O)NC(=O)c1ccc2ccccc2n1 | – |
| 0.1 µM | 0.028 µM | 3100 nM | 3000 nM | 2800 nM | 1000 nM | COCCOC(=O)NC(C(=O)NN(CC1CCCCC1)C[C@@H](O)[C@H](Cc1ccccc1)NC(=O)C(NC(=O)OC)C(C)C)C(C)C (some centres undefined) | 111 |
| 0.1 µM | 0.024 µM | < 200 nM | < 200 nM | < 200 nM | < 200 nM | CCOC(=O)NC(C(=O)NN(CC1CCCCC1)C[C@@H](O)[C@H](Cc1ccccc1)NC(=O)C(NC(=O)OCCOC)C(C)C)C(C)C (some centres undefined) | – |
| 0.3 µM | 0.079 µM | < 500 nM | < 500 nM | 1100 nM | 2700 nM | COCCOC(=O)NC(C(=O)N[C@@H](Cc1ccccc1)[C@H](O)CN(CC1CCCCC1)NC(=O)C(NC(=O)OCCOC)C(C)C)C(C)C (some centres undefined) | – |

The remaining lines, values behind:

| Compound | ED90 [1] | ED50 [2] | concentration at 2 h [3] | concentration at 1.5 h [4] | concentration at 1 h (Mus musculus (mouse)) | concentration at 0.5 h [5] | C120/ED50 [6] |
| --- | --- | --- | --- | --- | --- | --- | --- |
| CCOC(=O)NC(C(=O)NN(CC1CCCCC1)C[C@H](O)[C@H](Cc1ccccc1)NC(=O)[C@H](CC(N)=O)NC(=O)c1ccc2ccccc2n1)C(C)C (some centres undefined) | 0.03 µM | 0.0094 µM | – | – | – | – | – |
| CC(C)CN(C[C@H](O)[C@H](Cc1ccccc1)NC(=O)[C@H](CC(N)=O)NC(=O)c1ccc2ccccc2n1)NC(=O)C(NC(=O)OCc1ccccc1)C(C)C (some centres undefined) | 0.03 µM | 0.012 µM | – | – | – | – | – |
| COCCOC(=O)NC(C(=O)NC(Cc1ccccc1)C(O)CN(CC1CCCCC1)NC(=O)C(NC(=O)OC)C(C)C)C(C)C (centres undefined) | 0.1 µM | 0.014 µM | < 500 nM | < 500 nM | < 500 nM | < 500 nM | – |
| COC(=O)N[C@H](C(=O)N[C@@H](Cc1ccccc1)C(O)CN(Cc1ccc(OC)cc1)NC(=O)[C@@H](NC(=O)OC)C(C)C)C(C)C (some centres undefined) | 0.03 µM | 0.009 µM | < 200 nM | < 200 nM | – | < 200 nM | – |
| C=CCOC(=O)NC(C(=O)N[C@@H](Cc1ccccc1)[C@H](O)CN(CC1CCCCC1)NC(=O)C(NC(=O)OCC=C)C(C)C)C(C)C (some centres undefined) | 1 µM | 0.083 µM | 1000 nM | 900 nM | 1200 nM | 800 nM | 12 |
| COC(=O)N[C@H](C(=O)N[C@@H](Cc1ccccc1)C(O)CN(Cc1ccc(C)cc1)NC(=O)[C@@H](NC(=O)OC)C(C)C)C(C)C (some centres undefined) | 0.03 µM | 0.0062 µM | < 200 nM | < 200 nM | < 200 nM | < 200 nM | – |
